From US7601716B2, “Pyridopyrazines and derivatives thereof as ALK and c-Met inhibitors” (Cephalon, Inc., priority 2006, dated 2009)
pIC50: −log10 of the molar value.

Biological target: baculovirus-expressed ALK (Homo sapiens, UniProt Q9UM73)
Test: ALK Kinase Assay (ELISA/TRF, PLC-γ substrate); note: 1 µM ATP (Km level)
Type: biochemical
Details: read-out: ALK Kinase Inhibition (IC50)
Procedure, shortened: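 Substrate phosphorylation by 30 ng/ml ALK (37° C, 15 min) on PLC-γ-coated wells is quantified via time-resolved europium fluorescence from an anti-phosphotyrosine antibody. Percent inhibition against log10 compound concentration yields IC50 by nonlinear regression.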

baculovirus-expressed ALK, sequence (Q9UM73 19-1620): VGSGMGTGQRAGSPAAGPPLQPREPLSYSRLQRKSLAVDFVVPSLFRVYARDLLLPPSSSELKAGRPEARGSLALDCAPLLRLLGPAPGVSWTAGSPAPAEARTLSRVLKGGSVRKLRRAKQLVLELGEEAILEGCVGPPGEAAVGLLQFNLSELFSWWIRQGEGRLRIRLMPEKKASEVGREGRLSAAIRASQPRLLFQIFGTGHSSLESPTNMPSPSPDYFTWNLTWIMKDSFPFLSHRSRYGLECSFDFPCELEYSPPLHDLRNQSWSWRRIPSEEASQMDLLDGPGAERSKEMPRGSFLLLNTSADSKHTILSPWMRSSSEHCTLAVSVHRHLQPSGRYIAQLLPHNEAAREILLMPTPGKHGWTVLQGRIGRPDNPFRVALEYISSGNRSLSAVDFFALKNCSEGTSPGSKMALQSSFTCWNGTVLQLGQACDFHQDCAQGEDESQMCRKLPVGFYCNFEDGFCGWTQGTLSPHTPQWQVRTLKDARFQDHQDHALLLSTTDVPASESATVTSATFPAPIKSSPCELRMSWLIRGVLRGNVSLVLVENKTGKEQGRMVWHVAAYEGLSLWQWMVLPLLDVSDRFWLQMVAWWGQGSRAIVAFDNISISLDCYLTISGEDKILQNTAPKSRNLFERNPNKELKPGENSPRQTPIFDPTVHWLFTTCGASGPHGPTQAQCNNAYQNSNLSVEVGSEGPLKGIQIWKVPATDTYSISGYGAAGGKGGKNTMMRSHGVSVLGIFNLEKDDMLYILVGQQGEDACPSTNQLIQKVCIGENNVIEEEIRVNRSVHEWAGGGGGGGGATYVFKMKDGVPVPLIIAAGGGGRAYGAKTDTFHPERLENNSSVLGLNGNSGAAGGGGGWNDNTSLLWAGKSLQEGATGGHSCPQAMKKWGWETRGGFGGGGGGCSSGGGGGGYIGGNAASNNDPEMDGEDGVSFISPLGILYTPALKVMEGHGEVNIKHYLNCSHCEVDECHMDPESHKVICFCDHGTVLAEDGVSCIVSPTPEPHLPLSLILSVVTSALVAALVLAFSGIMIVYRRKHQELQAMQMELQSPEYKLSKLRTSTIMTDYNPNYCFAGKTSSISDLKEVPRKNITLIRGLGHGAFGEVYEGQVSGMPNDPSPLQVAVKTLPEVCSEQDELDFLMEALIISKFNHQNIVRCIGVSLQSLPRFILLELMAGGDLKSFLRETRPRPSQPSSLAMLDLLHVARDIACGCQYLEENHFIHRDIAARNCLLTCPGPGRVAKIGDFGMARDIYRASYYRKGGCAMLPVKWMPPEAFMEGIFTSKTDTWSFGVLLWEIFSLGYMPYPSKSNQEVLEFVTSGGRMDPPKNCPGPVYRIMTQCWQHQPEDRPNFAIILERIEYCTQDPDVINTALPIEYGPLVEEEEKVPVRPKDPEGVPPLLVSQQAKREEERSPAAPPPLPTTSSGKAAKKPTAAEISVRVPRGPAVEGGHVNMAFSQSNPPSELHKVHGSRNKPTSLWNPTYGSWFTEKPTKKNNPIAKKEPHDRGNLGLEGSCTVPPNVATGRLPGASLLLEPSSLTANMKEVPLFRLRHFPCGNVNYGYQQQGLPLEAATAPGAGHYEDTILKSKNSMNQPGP

| pIC50 | SMILES |
| --- | --- |
| 6.00 to 7.00 | COc1ccc(CN2CCN(C(=O)c3ccc(-c4cnc5c(c4)N(Cc4cc(Cl)ccc4C(F)(F)F)CCN5)cc3)CC2)cc1 [Example 384, (4-{1-[5-Chloro-2-(trifluoromethyl)benzyl]-1,2,3,4-tetrahydropyrido[2,3-b]pyrazin-7-yl}phenyl)-[4-(4-methoxybenzyl)piperazin-1-yl]methanone] |
| 6.00 to 7.00 | O=C(NC(c1ccccc1)c1ccccc1)c1cccc(-c2cnc3c(c2)N(Cc2cc(Cl)ccc2C(F)(F)F)CCN3)c1 [Example 333, N-Benzhydryl-3-{1-[5-chloro-2-(trifluoromethyl)benzyl]-1,2,3,4-tetrahydropyrido[2,3-b]pyrazin-7-yl}benzamide] |
| 6.00 to 7.00 | O=C(c1ccc(-c2cnc3c(c2)N(Cc2cc(Cl)ccc2C(F)(F)F)CCN3)cc1)N1CCN(c2ccccc2C(F)(F)F)CC1 [Example 381, (4-{1-[5-Chloro-2-(trifluoromethyl)benzyl]-1,2,3,4-tetrahydropyrido[2,3-b]pyrazin-7-yl}phenyl)-{4-[2-(trifluoromethyl)phenyl]piperazin-1-yl}methanone] |
| 6.00 to 7.00 | COc1ccccc1N1CCN(C(=O)c2ccc(-c3cnc4c(c3)N(Cc3cc(Cl)ccc3C(F)(F)F)CCN4)cc2)CC1 [Example 373, (4-{1-[5-Chloro-2-(trifluoromethyl)benzyl]-1,2,3,4-tetrahydropyrido[2,3-b]pyrazin-7-yl}phenyl)-[4-(2-methoxyphenyl)piperazin-1-yl]methanone] |
| 6.00 to 7.00 | O=C(c1cccc(-c2cnc3c(c2)N(Cc2cc(Cl)ccc2C(F)(F)F)CCN3)c1)N1CCCC1c1cccnc1 (centres unmarked) [Example 366, (3-{1-[5-Chloro-2-(trifluoromethyl)benzyl]-1,2,3,4-tetrahydropyrido[2,3-b]pyrazin-7-yl}phenyl)-(2-pyridin-3-ylpyrrolidin-1-yl)methanone] |
| 6.00 to 7.00 | O=C(NC1Cc2ccccc2C1)c1ccc(-c2cnc3c(c2)N(Cc2cc(Cl)ccc2C(F)(F)F)CCN3)cc1 [Example 423, 4-{1-[5-Chloro-2-(trifluoromethyl)benzyl]-1,2,3,4-tetrahydropyrido[2,3-b]pyrazin-7-yl}-N-indan-2-ylbenzamide] |
| 6.00 to 7.00 | O=C(NCc1ccccc1Cl)c1ccc(-c2cnc3c(c2)N(Cc2cc(Cl)ccc2C(F)(F)F)CCN3)cc1 [Example 412, N-(2-Chlorobenzyl)-4-{1-[5-chloro-2-(trifluoromethyl)benzyl]-1,2,3,4-tetrahydropyrido[2,3-b]pyrazin-7-yl}benzamide] |
| > 7.00 | CC(C)NC(=O)CN1CCN(C(=O)c2ccc(-c3cnc4c(c3)N(Cc3cc(Cl)ccc3C(F)(F)F)CCN4)cc2)CC1 [Example 402, 2-[4-(4-{1-[5-Chloro-2-(trifluoromethyl)benzyl]-1,2,3,4-tetrahydropyrido[2,3-b]pyrazin-7-yl}benzoyl)piperazin-1-yl]-N-isopropylacetamide] |
| 6.00 to 7.00 | O=C(c1cccc(-c2cnc3c(c2)N(Cc2cc(Cl)ccc2C(F)(F)F)CCN3)c1)N1CCN(Cc2ccc(Cl)cc2)CC1 [Example 321, [4-(4-Chlorobenzyl)piperazin-1-yl]-(3-{1-[5-Chloro-2-(trifluoromethyl)benzyl]-1,2,3,4-tetrahydropyrido[2,3-b]pyrazin-7-yl}phenyl)methanone] |
| 6.00 to 7.00 | O=C(c1ccc(-c2cnc3c(c2)N(Cc2cc(Cl)ccc2C(F)(F)F)CCN3)cc1)N1CCC(c2noc3cc(F)ccc23)CC1 [Example 387, (4-{1-[5-Chloro-2-(trifluoromethyl)benzyl]-1,2,3,4-tetrahydropyrido[2,3-b]pyrazin-7-yl}phenyl)-[4-(6-fluorobenzo[d]isoxazol-3-yl)-piperidin-1-yl]methanone] |
| 6.00 to 7.00 | COc1ccccc1CN(C)C(=O)c1cccc(-c2cnc3c(c2)N(Cc2cc(Cl)ccc2C(F)(F)F)CCN3)c1 [Example 367, 3-{1-[5-Chloro-2-(trifluoromethyl)benzyl]-1,2,3,4-tetrahydropyrido[2,3-b]pyrazin-7-yl}-N-(2-methoxybenzyl)-N-methylbenzamide] |
| 6.00 to 7.00 | O=C(c1cccc(-c2cnc3c(c2)N(Cc2cc(Cl)ccc2C(F)(F)F)CCN3)c1)N1CCC(O)(c2ccc(Cl)cc2)CC1 [Example 309, [4-(4-Chlorophenyl)-4-hydroxypiperidin-1-yl]-(3-{1-[5-Chloro-2-(trifluoromethyl)benzyl]-1,2,3,4-tetrahydropyrido[2,3-b]pyrazin-7-yl}phenyl)methanone] |
| 6.00 to 7.00 | COc1ccccc1N1CCN(C(=O)c2cccc(-c3cnc4c(c3)N(Cc3cc(Cl)ccc3C(F)(F)F)CCN4)c2)CC1 [Example 311, (3-{1-[5-Chloro-2-(trifluoromethyl)benzyl]-1,2,3,4-tetrahydropyrido[2,3-b]pyrazin-7-yl}phenyl)-[4-(2-methoxyphenyl)piperazin-1-yl]methanone] |
| > 7.00 | CN1CCC(NC(=O)c2ccc(-c3cnc4c(c3)N(Cc3cc(Cl)ccc3C(F)(F)F)CCN4)cc2)CC1 [Example 393, 4-{1-[5-Chloro-2-(trifluoromethyl)benzyl]-1,2,3,4-tetrahydropyrido[2,3-b]pyrazin-7-yl}-N-(1-methylpiperidin-4-yl)benzamide] |
| 6.00 to 7.00 | O=C(NCc1ccncc1)c1ccc(-c2cnc3c(c2)N(Cc2cc(Cl)ccc2C(F)(F)F)CCN3)cc1 [Example 400, 4-{1-[5-Chloro-2-(trifluoromethyl)benzyl]-1,2,3,4-tetrahydropyrido[2,3-b]pyrazin-7-yl}-N-pyridin-4-ylmethylbenzamide] |
| 6.00 to 7.00 | O=C(c1cccc(-c2cnc3c(c2)N(Cc2cc(Cl)ccc2C(F)(F)F)CCN3)c1)N1CCN(c2cccc(Cl)c2)CC1 [Example 357, [4-(3-Chlorophenyl)piperazin-1-yl]-(3-{1-[5-chloro-2-(trifluoromethyl)benzyl]-1,2,3,4-tetrahydropyrido[2,3-b]pyrazin-7-yl}phenyl)methanone] |
| 6.00 to 7.00 | O=C(NC1CCCCC1)c1cccc(-c2cnc3c(c2)N(Cc2cc(Cl)ccc2C(F)(F)F)CCN3)c1 [Example 346, 3-{1-[5-Chloro-2-(trifluoromethyl)benzyl]-1,2,3,4-tetrahydropyrido[2,3-b]pyrazin-7-yl}-N-cyclohexylbenzamide] |
| 5.00 to 6.00 | O=C(c1ccc(-c2cnc3c(c2)N(Cc2cc(Cl)ccc2C(F)(F)F)CCN3)cc1)N1CCC(Cc2ccccc2)CC1 [Example 378, (4-Benzylpiperidin-1-yl)-(4-{1-[5-chloro-2-(trifluoromethyl)benzyl]-1,2,3,4-tetrahydropyrido[2,3-b]pyrazin-7-yl}phenyl)methanone] |
| 6.00 to 7.00 | NS(=O)(=O)c1ccc(CCNC(=O)c2cccc(-c3cnc4c(c3)N(Cc3cc(Cl)ccc3C(F)(F)F)CCN4)c2)cc1 [Example 338, 3-{1-[5-Chloro-2-(trifluoromethyl)benzyl]-1,2,3,4-tetrahydropyrido[2,3-b]pyrazin-7-yl}-N-[2-(4-sulfamoylphenyl)ethyl]benzamide] |
| 6.00 to 7.00 | O=C(c1ccc(-c2cnc3c(c2)N(Cc2cc(Cl)ccc2C(F)(F)F)CCN3)cc1)N1CCN(c2cccc(C(F)(F)F)c2)CC1 [Example 374, (4-{1-[5-Chloro-2-(trifluoromethyl)benzyl]-1,2,3,4-tetrahydropyrido[2,3-b]pyrazin-7-yl}phenyl)-{4-[3-(trifluoromethyl)phenyl]piperazin-1-yl}methanone] |
